Measured values as given in ChEMBL document CHEMBL2040722, “Synthesis and anti-breast cancer activity of new indolylquinone derivatives” (Eur J Med Chem, 2012).
Converted amounts (≈) assume the structure as drawn. The source made the active and inactive calls. No cut-off for these calls is given here.

Experiments:
Format in all cases: functional, cell-based
MDA-MB-231 [1] = assay: Antiproliferative activity against human MDA-MB-231 cells after 48 hrs by CCK-8 assay; details: MDA-MB-231, 48 h
MCF7 [2] = assay: Antiproliferative activity against human MCF7 cells after 48 hrs by CCK-8 assay; details: MCF7, 48 h
MCF7 [3] = assay: Induction of apoptosis in human MCF7 cells assessed as early apoptosis at 0.9 ug/ml after 24 hrs by annexin V-FITC and PI-based fluorescence assay
MCF7 [4] = assay: Induction of apoptosis in human MCF7 cells after 24 hrs by annexin V-FITC and PI-based fluorescence assay
MCF7 [5] = assay: Induction of apoptosis in human MCF7 cells assessed as late apoptosis at 0.9 ug/ml after 24 hrs by annexin V-FITC and PI-based fluorescence assay
MCF7 [6] = assay: Induction of apoptosis in human MCF7 cells assessed as early apoptosis at 0.3 ug/ml after 24 hrs by annexin V-FITC and PI-based fluorescence assay
MCF7 [7] = assay: Induction of apoptosis in human MCF7 cells assessed as late apoptosis at 0.3 ug/ml after 24 hrs by annexin V-FITC and PI-based fluorescence assay
MDA-MB-231 [8] = assay: Induction of apoptosis in human MDA-MB-231 cells after 24 hrs by annexin V-FITC and PI-based fluorescence assay
MDA-MB-231 [9] = assay: Induction of apoptosis in human MDA-MB-231 cells at 0.4 ug/ml after 24 hrs by annexin V-FITC and PI-based fluorescence assay
MDA-MB-231 [10] = assay: Induction of apoptosis in human MDA-MB-231 cells at 1.25 ug/ml after 24 hrs by annexin V-FITC and PI-based fluorescence assay

Structure (SMILES)	IC50 (MDA-MB-231 [1]) [µg/mL]	IC50 (MCF7 [2]) [µg/mL]	further results
Cc1ccc(-c2[nH]c3ccccc3c2C2=C(Cl)C(=O)C(Cl)=C(c3c(C)[nH]c4ccccc34)C2=O)cc1	5.77 (≈ 11.3 µM)	2.88 (≈ 5.63 µM)	–
Cc1[nH]c2ccccc2c1C1=C(Br)C(=O)C(Br)=C(c2c(C)[nH]c3ccccc23)C1=O	4.76 (≈ 9.08 µM)	8.33 (≈ 15.9 µM)	–
COc1ccc2[nH]c(C)c(C3=C(Br)C(=O)C(c4c(-c5ccccc5)[nH]c5ccccc45)=C(Br)C3=O)c2c1	5.02 (≈ 8.15 µM)	2.57 (≈ 4.17 µM)	–
Cc1ccc(-c2[nH]c3ccccc3c2C2=C(Cl)C(=O)C(c3c(C)[nH]c4ccccc34)=C(Cl)C2=O)cc1	4.21 (≈ 8.23 µM)	2.8 (≈ 5.48 µM)	–
COc1ccc2[nH]c(C)c(C3=C(Cl)C(=O)C(Cl)=C(c4c(-c5ccc(C)cc5)[nH]c5ccccc45)C3=O)c2c1	6.04 (≈ 11.2 µM)	2.31 (≈ 4.27 µM)	–
Cc1[nH]c2ccccc2c1C1=C(Br)C(=O)C(Br)=C(c2c(-c3ccccc3)[nH]c3ccccc23)C1=O	4.33 (≈ 7.39 µM)	3.02 (≈ 5.15 µM)	–
Cc1ccc(-c2[nH]c3ccccc3c2C2=C(Br)C(=O)C(Br)=C(Br)C2=O)cc1	21.6 (≈ 39.2 µM)	> 25	–
COc1ccc2[nH]c(C)c(C3=C(Br)C(=O)C(c4c(C)[nH]c5ccccc45)=C(Br)C3=O)c2c1	> 10	> 25	–
O=C1C(Cl)=C(Cl)C(=O)C(c2c(-c3ccccc3)[nH]c3ccccc23)=C1Cl	34.9 (≈ 86.8 µM)	> 25	–
COc1ccc2[nH]c(C)c(C3=C(Br)C(=O)C(Br)=C(Br)C3=O)c2c1	> 10	> 25	–
Cc1[nH]c2ccccc2c1C1=C(Br)C(=O)C(c2c(C)[nH]c3ccccc23)=C(Br)C1=O	5.55 (≈ 10.6 µM)	7 (≈ 13.4 µM)	–
Cc1ccc(-c2[nH]c3ccccc3c2C2=C(Br)C(=O)C(Br)=C(c3c(C)[nH]c4ccccc34)C2=O)cc1	5.89 (≈ 9.81 µM)	6.85 (≈ 11.4 µM)	–
COc1ccc2[nH]c(C)c(C3=C(Br)C(=O)C(Br)=C(c4c(C)[nH]c5ccc(OC)cc45)C3=O)c2c1	8.43 (≈ 14.4 µM)	4.72 (≈ 8.08 µM)	–
COc1ccc2[nH]c(C)c(C3=C(Cl)C(=O)C(c4c(-c5ccc(C)cc5)[nH]c5ccccc45)=C(Cl)C3=O)c2c1	4.15 (≈ 7.66 µM)	3.11 (≈ 5.74 µM)	–

Continued, in another order:

IC50 (MDA-MB-231 [1]) [µg/mL]	IC50 (MCF7 [2]) [µg/mL]	Structure (SMILES)	further results
4.46 (≈ 8.97 µM)	2.29 (≈ 4.6 µM)	Cc1[nH]c2ccccc2c1C1=C(Cl)C(=O)C(c2c(-c3ccccc3)[nH]c3ccccc23)=C(Cl)C1=O	Activity (MCF7 [3]): Active; Activity (MCF7 [4]): Dose-dependent effect; Activity (MCF7 [5]): Active; Activity (MCF7 [6]): Active; Activity (MCF7 [7]): Active; Activity (MDA-MB-231 [8]): Dose-dependent effect
0.2 (≈ 0.368 µM)	–	COc1cccc2c1C(=O)c1c(O)c3c(c(O)c1C2=O)C[C@@](O)(C(=O)CO)C[C@@H]3O[C@H]1C[C@H](N)[C@H](O)[C@H](C)O1 [DOXORUBICIN]	–
5.27 (≈ 10.6 µM)	2.58 (≈ 5.19 µM)	Cc1[nH]c2ccccc2c1C1=C(Cl)C(=O)C(Cl)=C(c2c(-c3ccccc3)[nH]c3ccccc23)C1=O	–
3.99 (≈ 6.33 µM)	2.56 (≈ 4.06 µM)	COc1ccc2[nH]c(C)c(C3=C(Br)C(=O)C(c4c(-c5ccc(C)cc5)[nH]c5ccccc45)=C(Br)C3=O)c2c1	Activity (MCF7 [4]): Dose-dependent effect; Activity (MDA-MB-231 [9]): Active; Activity (MDA-MB-231 [8]): Dose-dependent effect; Activity (MDA-MB-231 [10]): Active
7.67 (≈ 12.4 µM)	3.38 (≈ 5.48 µM)	COc1ccc2[nH]c(C)c(C3=C(Br)C(=O)C(Br)=C(c4c(-c5ccccc5)[nH]c5ccccc45)C3=O)c2c1	–
5.64 (≈ 9.62 µM)	3.02 (≈ 5.15 µM)	Cc1[nH]c2ccccc2c1C1=C(Br)C(=O)C(c2c(-c3ccccc3)[nH]c3ccccc23)=C(Br)C1=O	–
6.67 (≈ 11.1 µM)	3.25 (≈ 5.41 µM)	Cc1ccc(-c2[nH]c3ccccc3c2C2=C(Br)C(=O)C(c3c(C)[nH]c4ccccc34)=C(Br)C2=O)cc1	–
